Measurements as given in US20240168030A1, “DIRECT FLUORESCENT GLYCAN LABELING” (BIO-TECHNE CORPORATION, priority 2019, published 2024).

Key:
FUT2 = biological target: T1, FUT2 (Homo sapiens, UniProt Q10981); assay: Fluorescent labeling with fluorophore-conjugated fucose by FUT2; format: biochemical; parameters: key to Tolerance of the fluorophore by FUT2: +++: indicated by number of + signs; ++: indicated by number of + signs; indicated by number of + signs; conditions: for Tolerance of the fluorophore by FUT2: fluorophore-conjugated fucose donor, acceptor terminal Gal of lactosamine, fluorescent intensity of labeled fetuin or asialofetuin in FIG. 9
T1 construct: purchased Bio-Techne (Minneapolis, MN)
T1 sequence (Q10981 1-343): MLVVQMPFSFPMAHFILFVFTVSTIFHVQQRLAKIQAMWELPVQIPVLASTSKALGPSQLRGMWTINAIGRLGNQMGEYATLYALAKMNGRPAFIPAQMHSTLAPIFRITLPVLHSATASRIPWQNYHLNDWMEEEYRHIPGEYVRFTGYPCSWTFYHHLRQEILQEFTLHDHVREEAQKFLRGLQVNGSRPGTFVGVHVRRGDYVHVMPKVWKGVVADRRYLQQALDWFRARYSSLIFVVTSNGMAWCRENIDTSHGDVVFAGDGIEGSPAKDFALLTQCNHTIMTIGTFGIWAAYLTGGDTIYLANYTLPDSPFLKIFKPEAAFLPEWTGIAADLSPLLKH
Experimental: FIG. 9A-FIG. 9B show exemplary results of probing substrate glycans of various fucosyltransferases on fetuin and asialofetuin. FIG. 9A. Probing substrate glycans of fucosyltransferases with guanosine 5′-diphosphate activated Cy5 conjugated fucose (GDP-Cy5-Fuc). […] FUT9 labeled itself (indicated by an arrow in the gel). FIG. 9B. Tolerance of Alexa-Fluor®555 (555), Alexa-Fluor®488 (488), and Cy5 by the indicated fucosyltransferases. All reactions were incubated at 37° C. for 30 minutes and then separated on SDS-PAGE and imaged with silver staining (upper panels) and fluorescent imager (lower panels). M, molecular marker.
(§1) For a typical labeling reaction, 1 μg to 5 μg target protein was mixed with 0.2 nmol GDP-f-Fuc and 0.2 μg of a fucosyltransferase in 30 μL buffer of 25 mM Tris pH 7.5, 10 mM MnCl2. The mixture was incubated at 37° C. for 30 minutes. The reaction was then separated by sodium dodecyl sulfate—polyacrylamide gel electrophoresis (SDS-PAGE) and the gel was directly imaged using a fluorescent imager FluorChem M ProteinSimple, Bio-Techne, Minneapolis, MN), followed by imaging with traditional protein imaging methods such as silver staining or trichloroethanol (TCE) staining.
The four enzymes tolerated the three fluorophores to different levels.

FUT8 = biological target: T2, FUT8 (Homo sapiens, UniProt Q9BYC5); assay: Fluorescent labeling with fluorophore-conjugated fucose by FUT8; format: biochemical; parameters: key to Tolerance of the fluorophore by FUT8: +++: indicated by number of + signs; ++: indicated by number of + signs; indicated by number of + signs; conditions: for Incorporation of conjugated fucose into antibodies by FUT8: Cantuzumab (FUT8 knockout cells) and NIST mAb 8671, FIG. 10A; for Tolerance of the fluorophore by FUT8: fluorophore-conjugated fucose donor, acceptor core GlcNAc of N-glycans, labeled Cantuzumab in FIG. 10
T2 construct: purchased Bio-Techne (Minneapolis, MN)
T2 sequence (Q9BYC5 1-575): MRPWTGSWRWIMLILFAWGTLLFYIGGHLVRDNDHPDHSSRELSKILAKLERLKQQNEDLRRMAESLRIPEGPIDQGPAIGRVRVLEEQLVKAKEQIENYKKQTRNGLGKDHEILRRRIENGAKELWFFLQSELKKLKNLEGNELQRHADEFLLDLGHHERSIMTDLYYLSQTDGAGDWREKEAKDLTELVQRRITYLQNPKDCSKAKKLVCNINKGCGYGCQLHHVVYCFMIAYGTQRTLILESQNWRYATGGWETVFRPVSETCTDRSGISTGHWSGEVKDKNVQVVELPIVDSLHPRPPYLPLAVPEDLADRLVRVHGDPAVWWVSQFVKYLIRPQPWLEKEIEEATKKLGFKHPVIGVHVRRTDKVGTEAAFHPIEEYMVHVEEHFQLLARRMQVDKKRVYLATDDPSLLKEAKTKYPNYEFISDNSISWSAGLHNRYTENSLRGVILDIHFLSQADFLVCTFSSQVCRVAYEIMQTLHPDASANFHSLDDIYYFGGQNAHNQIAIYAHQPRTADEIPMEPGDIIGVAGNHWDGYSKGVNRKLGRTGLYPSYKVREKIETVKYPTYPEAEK
From the text: FIG. 10A-FIG. 10D show exemplary results of probing core-6 fucosylation on antibodies by FUT8 incorporation of fluorophores. FIG. 10A. Results of probing substrate glycans of FUT8 (F8) and FUT9 (F9) on Cantuzumab, an anti-Muc1 therapeutic antibody, and NIST reference mAb 8671 using guanosine 5′-diphosphate activated Alexa-Fluor®555 conjugated fucose (GDP-AF555-Fuc) (555), GDP-Cy5-fucose (Cy5), and guanosine 5′-diphosphate activated Alexa-Fluor®488 conjugated fucose (GDP-AF488-Fuc) (488) as donor substrates. Cantuzumab was expressed in FUT8 knockout cells and is devoid of core-6 fucose. Molecular marker (MM) is a prestained Western molecular marker (Bio-Rad Laboratories, Hercules, CA). […] The product of each reaction was separated using SDS-PAGE and imaged with trichloroethanol (TCE) staining (upper panel) and fluorescent imager (lower panel). Labeling on the light chains of the antibodies by Alexa-Fluor®555 is likely the result of non-specific staining due to the use of unpurified GDP-AF555-Fuc that contained free Alexa-Fluor®555. FIG. 10B. […] FIG. 10C. […] FIG. 10D. Schematics of the glycan structures analyzed in FIG. 10B and FIG. 10C.
as §1
Although FUT8 was known to tolerate azido-fucose (Wu et al. Biochem Biophys Res Commun 473, 524-529 (2016)), it was unknown whether FUT8 could tolerate a fluorophore-conjugated fucose. To test whether FUT8 could tolerate the fluorophore-conjugated fucose and detect its substrate glycans, two substrates were used: Cantuzumab was prepared from a FUT8 knockout cell line, and a reference monoclonal antibody from the National Institute of Standards and Technology (NIST mAb, material 8671, Gaithersburg, MD). The NIST mAb is a humanized IgG1κ monoclonal antibody (Kashi et al. MAbs 10, 922-933 (2018)). IgG antibodies are known to contain an N-glycan site on their heavy chains (Reusch et al. Glycobiology 25, 1325-1334 (2015)).

## guanosine 5′-diphosphate activated Alexa-Fluor®488 conjugated fucose [GDP-AF488-Fuc]
FUT2
  Tolerance of the fluorophore by FUT2: +
FUT8
  Incorporation of conjugated fucose into antibodies by FUT8: introduced into Cantuzumab but not to NIST mAb
  Tolerance of the fluorophore by FUT8: ++

## guanosine 5′-diphosphate activated Alexa-Fluor®555 conjugated fucose [GDP-AF555-Fuc]
FUT2; among Cy5-, AlexaFluor® 488-, and AlexaFluor® 555-conjugated fucoses, FIG. 9B
  Fluorophore preference of FUT2: preferred
FUT2
  Tolerance of the fluorophore by FUT2: +++
FUT8
  Incorporation of conjugated fucose into antibodies by FUT8: introduced into Cantuzumab but not to NIST mAb
  Tolerance of the fluorophore by FUT8: ++
